Laboratory results reported in article PMC9027532, “Preclinical Pharmacokinetic Studies of a Novel Diuretic Inhibiting Urea Transporters” (Molecules, 2022).
Several values for one entry are separate records, joined by “and”; a condition that tells them apart may be missing. Equal values may be shown once. Read-outs that look alike come from different tables or passages of the source.

Columns and labels:
UT-B [1] = tested on: UT-B; set-up: method as in PMID 34601246; conditions: rat; read-out: inhibitory effect on UT-B; cited from earlier work
in vivo = conditions: male, Sprague-Dawley, rat, po
mice = tested on: mice; set-up: method as in PMID 34601246; conditions: orally administered; cited from earlier work
rats = tested on: rats; set-up: method as in PMID 34601246; conditions: orally administered; cited from earlier work
UT-B [2] = tested on: UT-B; set-up: method as in PMID 34601246; conditions: mice; read-out: inhibitory effect on UT-B; cited from earlier work
[3] = Excretion experiment in rats (urine, feces); assay type: in vivo, SD rats; conditions: single oral dose 100 mg/kg
Experimental: The cumulative excretion ratios of unchanged 25a in the urine, feces, and bile of rats after a single oral dose at 100 mg/kg were 0.14% ± 0.05%, 3.16% ± 0.96%, and 0.018% ± 0.006%, respectively (Figure 6 and Tables S5–S7). […] Further phenotyping and metabolite identification studies should be conducted to elucidate the major elimination forms of 25a in the future.
Four SD rats were adapted in metabolic cages for 3 days in advance and then administrated with 25a at 100 mg/kg orally. Feces and urine were collected and weighed at 0–6 h, 6–12 h, […], 24–36 h, 36–48 h, 48–60 h, and 60–72 h after administration. Parallelly, four SD rats received bile duct cannulation and were given a single dose of 25a at 100 mg/kg orally. Bile was collected and weighed at 0–2 h, 0–4 h, 0–6 h, 0–8 h, 0–10 h, 0–12 h, 0–24 h, 0–36 h, and 0–48 h after administration. All samples were stored at −80 °C until analysis.

[4] = Plasma protein binding by equilibrium dialysis, rat plasma; assay type: in vitro ADME, SD rats
Experimental: The plasma protein binding (PPB) and blood plasma ratio (BPR) are crucial parameters influencing the drug distribution and elimination in plasma. The PPB profile of 25a was evaluated by equilibrium dialysis, a classic method to assess the interactions of small molecules with proteins. The PPB of 25a was tested at 50, 500, and 2500 ng/mL (Table 7). […] When considering the allometric scaling of PK parameters, the species difference of protein binding between humans and rats should be considered.
The plasma protein binding (PPB) ratio of 25a was assessed via equilibrium dialysis in SD rats and human plasma. Four hundred microliters of plasma containing 50, 500, or 2500 ng/mL 25a were loaded into the dialysis bags (plasma side), and the bags were placed into tubes containing 4 mL of the dialysis buffer (buffer side). The tubes were then rotated at approximately 100 rpm in a humidified incubator with 5% CO2 at 37 ± 1 °C for 5 h.
After the 5 h dialysis, aliquots of 50 μL samples were taken from both the buffer and the plasma sides. An equal volume of the opposite blank matrix (buffer or plasma) was added to each sample to reach a final volume of 100 μL with a volume ratio of plasma to dialysis buffer at 1:1 (v/v). All samples were further processed by adding 600 μL of stop solution (containing 10 ng/mL IS) to precipitate protein for LC–MS/MS analysis. The PPB ratio (%) was calculated by PPB% = 100% × (1 − Conc.buffer side/Conc.plasma side).

CC(=O)Nc1ccc(NC(=O)c2ccc(C(C)=O)o2)cc1 [Compound 25a, N-(4-acetamidophenyl)-5-acetylfuran-2-carboxamide]
MRT (in vivo): ~5.4 h
MRT (in vivo; 50 mg/kg): 5.4 ± 0.8 h
AUC(0-t) (in vivo; 100 mg/kg): 6920 ± 377 ng·h/mL
Na+, K+, and Cl− levels in the blood (mice): without disturbing
urine output vs vehicle control (mice): three times higher urine output than vehicle control
Na+, K+, and Cl− levels in the blood (rats): without disturbing
urine output vs vehicle control (rats): three times higher urine output than vehicle control
total cumulative excretion fractions of unchanged 25a in urine, feces, and bile [3]: less than 5%
Accumulated Amount in feces ([3]; 0-6 h): 0.248 ± 0.056 mg
Accumulated Amount in urine ([3]; 0-6 h): 0.0129 ± 0.0059 mg
Concentration in feces ([3]; 0-6 h): 6547.5 ± 1407.8 ng/mL
Concentration in urine ([3]; 0-6 h): 1865.0 ± 576.4 ng/mL
cumulative excretion ratio of unchanged 25a in feces ([3]; 100 mg/kg): 3.16% and 3.16% ± 0.96%
Accumulated Amount in feces ([3]; 6-12 h): 0.565 ± 0.130 mg
Accumulated Amount in urine ([3]; 6-12 h): 0.0221 ± 0.0046 mg
Concentration in feces ([3]; 6-12 h): 9237.5 ± 2337.8 ng/mL
Concentration in urine ([3]; 6-12 h): 1696.3 ± 1,244.3 ng/mL
Accumulated Amount in feces ([3]; 12-24 h): 0.798 ± 0.309 mg
Accumulated Amount in urine ([3]; 12-24 h): 0.0305 ± 0.0066 mg
Concentration in feces ([3]; 12-24 h): 6053.3 ± 4545.2 ng/mL
Concentration in urine ([3]; 12-24 h): 869.3 ± 442.0 ng/mL
Accumulated Amount in feces ([3]; 24-36 h): 0.802 ± 0.310 mg
Accumulated Amount in urine ([3]; 24-36 h): 0.0317 ± 0.0077 mg
Concentration in feces ([3]; 24-36 h): 188.2 ± 121.9 ng/mL
Concentration in urine ([3]; 24-36 h): 132.4 ± 108.1 ng/mL
Accumulated Amount in feces ([3]; 36-48 h): 0.802 ± 0.310 mg
Accumulated Amount in urine ([3]; 36-48 h): 0.0327 ± 0.0085 mg
Concentration in feces ([3]; 36-48 h): 7.0 ± 8.8 ng/mL
Concentration in urine ([3]; 36-48 h): 104.4 ± 95.7 ng/mL
Accumulated Amount in feces ([3]; 48-60 h): 0.802 ± 0.310 mg
Accumulated Amount in urine ([3]; 48-60 h): 0.0332 ± 0.0089 mg
Concentration in feces ([3]; 48-60 h): 2.1 ± 3.1 ng/mL
Concentration in urine ([3]; 48-60 h): 49.6 ± 31.9 ng/mL
Accumulated Amount in feces ([3]; 60-72 h): 0.802 ± 0.310 mg
Accumulated Amount in urine ([3]; 60-72 h): 0.0337 ± 0.0090 mg
Concentration in feces ([3]; 60-72 h): 3.8 ± 3.8 ng/mL
Concentration in urine ([3]; 60-72 h): 32.5 ± 11.2 ng/mL
fraction unbound at 5 h, 50 ng/mL ([4]; SD, rat plasma, 50 ng/mL): 0.368
fraction unbound at 5 h, 500 ng/mL ([4]; SD, rat plasma, 500 ng/mL): 0.386
fraction unbound at 5 h, 2500 ng/mL ([4]; SD, rat plasma, 2500 ng/mL): 0.355
fraction unbound at 5 h ([4]; Sprague-Dawley, rat plasma, 50, 500, 2500 ng/mL, read-out: mean plasma protein binding (PPB) (converted)): ~0.4
